In the kinase profiling compilation of Christmann-Franck et al. (2016):

Legend:
Experiment in all cases: KINOMEscan competition binding
Settings in all cases: compound 1.0 µM
[1] = tested on: ABL1 (human), P00519 [E255K]
[2] = tested on: ABL1 (human), P00519 [M351T]
[3] = biological target: BLK (human) (UniProt P51451)
[4] = biological target: CDK17 (human) (UniProt Q00537)
[5] = biological target: CDK19 (human) (UniProt Q9BWU1)
[6] = biological target: CDK4 CCND1 (human) (UniProt P11802+P24385)
[7] = biological target: CDK7 (human) (UniProt P50613)
[8] = biological target: CDK9 (human) (UniProt P50750)
[9] = biological target: DCLK2 (human) (UniProt Q8N568)
[10] = tested on: EGFR (human), P00533 [P753S; 747-752 del]
[11] = tested on: FLT3 (human), P36888 [R834Q]
[12] = biological target: GRK4 (human) (UniProt P32298)
[13] = biological target: IGF1R (human) (UniProt P08069)
[14] = tested on: KIT (human), P10721 [A829P]
[15] = biological target: MAK (human) (UniProt P20794)
[16] = biological target: MAP2K4 (human) (UniProt P45985)
[17] = biological target: MAST1 (human) (UniProt Q9Y2H9)
[18] = tested on: MET (human), P08581 [M1250T]
[19] = biological target: MINK1 (human) (UniProt Q8N4C8)
[20] = biological target: MST4 (human) (UniProt Q9P289)
[21] = biological target: NEK11 (human) (UniProt Q8NG66)
[22] = biological target: NEK2 (human) (UniProt P51955)
[23] = biological target: NEK9 (human) (UniProt Q8TD19)
[24] = tested on: PIK3CA (human), P42336 [Q546K]
[25] = biological target: PIK3CG (human) (UniProt P48736)
[26] = biological target: PLK2 (human) (UniProt Q9NYY3)
[27] = biological target: PLK4 (human) (UniProt O00444)
[28] = tested on: RET (human), P07949 [V804L]
[29] = biological target: RIOK1 (human) (UniProt Q9BRS2)
[30] = biological target: RPS6KA4 KD1 (human) (UniProt O75676)
[31] = biological target: RPS6KA6 KD1 (human) (UniProt Q9UK32)
[32] = biological target: STK11 (human) (UniProt Q15831)
[33] = biological target: STK16 (human) (UniProt O75716)
[34] = biological target: STK36 (human) (UniProt Q9NRP7)
[35] = biological target: TEK (human) (UniProt Q02763)
[36] = biological target: TNNI3K (human) (UniProt Q59H18)
[37] = biological target: TYRO3 (human) (UniProt Q06418)
[38] = biological target: WNK3 (human) (UniProt Q9BYP7)
[39] = biological target: ZAP70 (human) (UniProt P43403)

PIK3CG (human), sequence (P48736 whole entry, looked up): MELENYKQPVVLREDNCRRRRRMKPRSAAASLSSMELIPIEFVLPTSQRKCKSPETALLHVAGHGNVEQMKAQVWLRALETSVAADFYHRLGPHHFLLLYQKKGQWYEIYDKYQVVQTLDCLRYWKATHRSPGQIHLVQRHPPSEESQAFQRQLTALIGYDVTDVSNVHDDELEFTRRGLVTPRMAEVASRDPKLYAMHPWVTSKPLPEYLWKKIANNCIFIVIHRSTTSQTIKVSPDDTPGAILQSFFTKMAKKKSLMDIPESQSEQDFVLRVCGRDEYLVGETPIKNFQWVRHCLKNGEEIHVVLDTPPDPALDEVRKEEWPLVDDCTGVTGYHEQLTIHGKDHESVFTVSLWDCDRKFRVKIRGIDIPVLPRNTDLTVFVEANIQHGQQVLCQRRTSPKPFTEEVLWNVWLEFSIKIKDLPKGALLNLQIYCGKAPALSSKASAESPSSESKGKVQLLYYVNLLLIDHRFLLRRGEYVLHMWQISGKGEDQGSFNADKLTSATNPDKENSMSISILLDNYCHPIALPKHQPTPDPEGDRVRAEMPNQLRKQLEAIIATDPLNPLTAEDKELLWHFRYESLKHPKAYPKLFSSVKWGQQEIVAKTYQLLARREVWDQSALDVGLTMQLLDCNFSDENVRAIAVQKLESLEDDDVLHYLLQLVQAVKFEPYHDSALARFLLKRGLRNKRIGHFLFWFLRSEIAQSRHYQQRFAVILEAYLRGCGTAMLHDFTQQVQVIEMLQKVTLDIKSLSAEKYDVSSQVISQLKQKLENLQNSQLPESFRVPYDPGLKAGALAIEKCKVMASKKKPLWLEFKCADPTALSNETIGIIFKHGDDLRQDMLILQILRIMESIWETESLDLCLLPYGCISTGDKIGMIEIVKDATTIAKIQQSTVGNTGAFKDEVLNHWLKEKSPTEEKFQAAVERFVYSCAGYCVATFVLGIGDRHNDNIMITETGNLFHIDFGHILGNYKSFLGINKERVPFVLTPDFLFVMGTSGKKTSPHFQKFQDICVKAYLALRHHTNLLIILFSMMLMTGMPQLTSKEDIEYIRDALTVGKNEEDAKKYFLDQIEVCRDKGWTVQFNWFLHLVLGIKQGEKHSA
CDK4 CCND1 (human), sequence (P11802 whole entry, looked up): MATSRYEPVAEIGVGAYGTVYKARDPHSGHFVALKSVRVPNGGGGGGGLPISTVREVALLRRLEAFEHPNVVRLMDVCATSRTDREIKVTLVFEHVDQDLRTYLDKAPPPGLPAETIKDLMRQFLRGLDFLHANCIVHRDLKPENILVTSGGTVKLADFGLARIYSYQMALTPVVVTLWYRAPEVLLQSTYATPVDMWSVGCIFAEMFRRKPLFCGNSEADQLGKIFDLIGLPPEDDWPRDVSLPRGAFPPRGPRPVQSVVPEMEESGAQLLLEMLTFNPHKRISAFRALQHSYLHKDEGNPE
CDK4 CCND1 (human), sequence (P24385 whole entry, looked up): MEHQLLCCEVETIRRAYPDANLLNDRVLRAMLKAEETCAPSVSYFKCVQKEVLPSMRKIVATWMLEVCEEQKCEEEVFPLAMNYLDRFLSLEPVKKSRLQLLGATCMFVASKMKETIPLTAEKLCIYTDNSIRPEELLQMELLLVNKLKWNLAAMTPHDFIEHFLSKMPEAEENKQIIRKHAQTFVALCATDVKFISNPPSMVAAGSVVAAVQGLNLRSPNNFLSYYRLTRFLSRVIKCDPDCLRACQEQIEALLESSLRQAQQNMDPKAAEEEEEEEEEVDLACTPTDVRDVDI
RPS6KA6 KD1 (human), sequence (Q9UK32 whole entry, looked up): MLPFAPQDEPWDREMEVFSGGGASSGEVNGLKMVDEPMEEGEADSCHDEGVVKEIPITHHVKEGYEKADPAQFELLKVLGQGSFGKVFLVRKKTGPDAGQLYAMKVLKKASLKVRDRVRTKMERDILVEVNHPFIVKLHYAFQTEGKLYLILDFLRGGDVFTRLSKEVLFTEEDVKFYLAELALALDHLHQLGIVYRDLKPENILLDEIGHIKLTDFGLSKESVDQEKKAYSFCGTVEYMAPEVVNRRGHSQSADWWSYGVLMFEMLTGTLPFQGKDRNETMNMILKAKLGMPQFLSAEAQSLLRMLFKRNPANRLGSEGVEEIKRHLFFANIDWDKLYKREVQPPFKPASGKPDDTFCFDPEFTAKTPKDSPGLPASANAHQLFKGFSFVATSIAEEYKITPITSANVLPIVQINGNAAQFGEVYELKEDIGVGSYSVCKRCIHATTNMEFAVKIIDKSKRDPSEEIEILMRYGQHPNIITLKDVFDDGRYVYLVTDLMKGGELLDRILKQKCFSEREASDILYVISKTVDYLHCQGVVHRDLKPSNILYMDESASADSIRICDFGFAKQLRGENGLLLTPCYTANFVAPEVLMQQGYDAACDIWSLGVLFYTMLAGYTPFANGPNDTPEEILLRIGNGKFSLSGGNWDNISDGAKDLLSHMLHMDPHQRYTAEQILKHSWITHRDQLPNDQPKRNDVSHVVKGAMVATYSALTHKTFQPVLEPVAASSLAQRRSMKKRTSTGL
STK36 (human), sequence (Q9NRP7 whole entry, looked up): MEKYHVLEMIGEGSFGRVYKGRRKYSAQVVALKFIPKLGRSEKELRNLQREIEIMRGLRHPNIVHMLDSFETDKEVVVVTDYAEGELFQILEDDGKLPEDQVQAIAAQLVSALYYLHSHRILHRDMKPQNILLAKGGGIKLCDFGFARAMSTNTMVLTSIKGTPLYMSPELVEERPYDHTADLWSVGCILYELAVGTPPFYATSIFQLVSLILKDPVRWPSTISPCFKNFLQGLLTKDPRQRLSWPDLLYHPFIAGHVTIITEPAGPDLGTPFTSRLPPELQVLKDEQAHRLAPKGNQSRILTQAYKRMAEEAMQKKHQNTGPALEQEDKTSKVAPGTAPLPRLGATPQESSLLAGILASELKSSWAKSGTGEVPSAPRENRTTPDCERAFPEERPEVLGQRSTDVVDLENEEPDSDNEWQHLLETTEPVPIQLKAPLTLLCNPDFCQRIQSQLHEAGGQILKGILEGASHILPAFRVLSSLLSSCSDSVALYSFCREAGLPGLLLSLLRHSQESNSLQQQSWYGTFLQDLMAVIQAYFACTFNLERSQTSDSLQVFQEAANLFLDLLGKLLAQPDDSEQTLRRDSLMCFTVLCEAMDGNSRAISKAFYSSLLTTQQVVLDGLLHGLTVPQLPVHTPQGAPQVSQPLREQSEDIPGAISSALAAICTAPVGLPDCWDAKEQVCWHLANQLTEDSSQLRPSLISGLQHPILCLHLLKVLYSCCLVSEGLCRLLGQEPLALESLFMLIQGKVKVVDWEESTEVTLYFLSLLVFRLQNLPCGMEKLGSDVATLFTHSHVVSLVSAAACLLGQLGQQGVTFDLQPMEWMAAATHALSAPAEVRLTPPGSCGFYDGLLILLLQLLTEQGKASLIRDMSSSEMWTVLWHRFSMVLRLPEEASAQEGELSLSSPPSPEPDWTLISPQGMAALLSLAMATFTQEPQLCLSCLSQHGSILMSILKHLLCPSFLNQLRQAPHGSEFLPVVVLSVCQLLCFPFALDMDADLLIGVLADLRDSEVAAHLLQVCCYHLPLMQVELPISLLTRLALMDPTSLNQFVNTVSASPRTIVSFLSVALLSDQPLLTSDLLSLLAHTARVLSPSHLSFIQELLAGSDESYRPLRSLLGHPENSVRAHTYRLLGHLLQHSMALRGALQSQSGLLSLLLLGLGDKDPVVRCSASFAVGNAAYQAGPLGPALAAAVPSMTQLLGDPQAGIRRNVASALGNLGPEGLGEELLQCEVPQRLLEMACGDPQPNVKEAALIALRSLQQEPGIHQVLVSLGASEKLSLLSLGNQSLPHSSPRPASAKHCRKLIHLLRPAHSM
MAP2K4 (human), sequence (P45985 whole entry, looked up): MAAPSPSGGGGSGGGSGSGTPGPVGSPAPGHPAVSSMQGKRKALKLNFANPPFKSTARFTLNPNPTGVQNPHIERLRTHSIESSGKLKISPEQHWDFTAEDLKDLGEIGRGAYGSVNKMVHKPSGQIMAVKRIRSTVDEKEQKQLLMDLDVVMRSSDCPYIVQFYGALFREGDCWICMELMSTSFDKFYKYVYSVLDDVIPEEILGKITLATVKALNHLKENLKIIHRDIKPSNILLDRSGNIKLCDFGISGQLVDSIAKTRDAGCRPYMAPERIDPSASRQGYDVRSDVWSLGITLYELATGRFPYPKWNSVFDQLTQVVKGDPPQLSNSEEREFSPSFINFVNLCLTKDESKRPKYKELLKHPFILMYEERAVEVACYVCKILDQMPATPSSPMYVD
TYRO3 (human), sequence (Q06418 whole entry, looked up): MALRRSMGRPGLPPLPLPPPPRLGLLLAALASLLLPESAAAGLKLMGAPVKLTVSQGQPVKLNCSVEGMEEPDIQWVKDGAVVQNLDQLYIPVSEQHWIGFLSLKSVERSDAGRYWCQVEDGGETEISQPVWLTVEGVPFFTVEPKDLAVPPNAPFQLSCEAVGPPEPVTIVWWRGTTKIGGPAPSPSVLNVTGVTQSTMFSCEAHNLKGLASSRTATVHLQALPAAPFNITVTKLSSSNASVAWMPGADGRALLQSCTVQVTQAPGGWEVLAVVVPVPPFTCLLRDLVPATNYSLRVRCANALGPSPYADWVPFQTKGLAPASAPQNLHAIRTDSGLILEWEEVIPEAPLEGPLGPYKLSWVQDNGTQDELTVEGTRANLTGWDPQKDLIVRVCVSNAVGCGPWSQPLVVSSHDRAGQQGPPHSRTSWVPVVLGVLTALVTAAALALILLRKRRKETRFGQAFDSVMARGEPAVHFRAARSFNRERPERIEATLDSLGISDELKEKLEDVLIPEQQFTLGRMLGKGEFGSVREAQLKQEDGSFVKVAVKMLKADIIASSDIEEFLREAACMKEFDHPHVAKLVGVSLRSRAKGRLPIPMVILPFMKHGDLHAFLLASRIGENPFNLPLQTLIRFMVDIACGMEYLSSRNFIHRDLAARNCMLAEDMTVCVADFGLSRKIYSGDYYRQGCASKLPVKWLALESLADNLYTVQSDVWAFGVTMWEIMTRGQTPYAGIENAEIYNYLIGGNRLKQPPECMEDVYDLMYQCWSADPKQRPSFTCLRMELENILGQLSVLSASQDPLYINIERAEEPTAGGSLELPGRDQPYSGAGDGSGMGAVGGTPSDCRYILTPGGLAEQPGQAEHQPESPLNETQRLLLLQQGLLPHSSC

For `CNc1nc(Nc2ccc(C(=O)N3CCOCC3)cc2OC)ncc1Cl`, the kinase still bound, per cent of control [1] was 52%, the kinase still bound, per cent of control [2] was 97% and the kinase still bound, per cent of control [3] was 100%. It also gave a residual activity [4] of 97%, a residual activity [5] of 100% and a residual activity [6] of 100%. For the same compound, the residual activity [7] was 57%, the residual activity [8] was 100% and the kinase still bound, per cent of control [9] was 100%. For the same compound, the kinase still bound, per cent of control [10] was 89%, the kinase still bound, per cent of control [11] was 100% and the kinase still bound, per cent of control [12] was 75%. For the same compound, the residual activity [13] was 100%, the kinase still bound, per cent of control [14] was 93% and the kinase still bound, per cent of control [15] was 100%. For the same compound, the kinase still bound, per cent of control [16] was 78%, the kinase still bound, per cent of control [17] was 93% and the kinase still bound, per cent of control [18] was 100%. For the same compound, the kinase still bound, per cent of control [19] was 100%, the kinase still bound, per cent of control [20] was 100% and the kinase still bound, per cent of control [21] was 100%. It also gave a kinase still bound, per cent of control [22] of 78%, a kinase still bound, per cent of control [23] of 93% and a kinase still bound, per cent of control [24] of 100%. For the same compound, the kinase still bound, per cent of control [25] was 78%, the kinase still bound, per cent of control [26] was 100% and the kinase still bound, per cent of control [27] was 62%. It also gave a kinase still bound, per cent of control [28] of 99%, a kinase still bound, per cent of control [29] of 95% and a kinase still bound, per cent of control [30] of 89%. For the same compound, the kinase still bound, per cent of control [31] was 100%, the kinase still bound, per cent of control [32] was 90% and the kinase still bound, per cent of control [33] was 100%. The kinase still bound, per cent of control [34] was 100%, the kinase still bound, per cent of control [35] was 100% and the kinase still bound, per cent of control [36] was 54%. The kinase still bound, per cent of control [37] was 100%, the kinase still bound, per cent of control [38] was 93% and the kinase still bound, per cent of control [39] was 92%.
